Laboratory results reported in ChEMBL document CHEMBL6115030, “Systematic All-Hydrocarbon Stapling Analysis for Cecropin A Generates a Potent and Stable Antimicrobial Peptide” (J Med Chem, 2025).
Calls of active or inactive are those of the source. The calls are words filed in the database; no cut-off is given here. Bridge positions count the residues as written; N and C are the ends. Square brackets hold non-standard residues; d marks the D form. Peptide text beside a SMILES is read from it. * marks the point of attachment. X1 = CC[C@H](C)CCCCC(=O)*; Dab = NCC[C@H](N)C(=O)O

How the values were obtained:
Escherichia coli [1] = assay: In vivo antibacterial activity against Escherichia coli intraperitoneally injected into C57BL/6 mouse peritonitis model assessed as mouse survival at 2.5 mg/kg, ip measured after 48 hrs relative to control; assay type: functional
Staphylococcus aureus = assay: Antibacterial activity against Staphylococcus aureus ATCC 25923 assessed as inhibition of bacterial growth measured after 24 hrs by broth microdilution method; assay type: functional
Klebsiella pneumoniae = assay: Antibacterial activity against Klebsiella pneumoniae ATCC 13883 assessed as inhibition of bacterial growth measured after 24 hrs by broth microdilution method; assay type: functional
Pseudomonas aeruginosa = assay: Antibacterial activity against Pseudomonas aeruginosa PAO1 assessed as inhibition of bacterial growth measured after 24 hrs by broth microdilution method; assay type: functional
[2] = Hemolytic activity in human RBC assessed as hemolysis incubated for 1 hr by microplate reader; assay type: toxicity, cell-based, Erythrocyte; conditions: red blood cells
[3] = Stability of the compound in human serum assessed as peptide degradation by RP-HPLC analysis; assay type: ADME, cell-free; conditions: read-out: T50 (converted)
[4] = Stability of the compound in human serum assessed as retention time by RP-HPLC analysis; assay type: ADME, cell-free
Cell membrane = assay: Induction of Outer membrane damage in Escherichia coli assessed as irregular collapsed and rough surface membrane at 5 uM measured after 24 hrs by SEM imaging analysis
[5] = Stability of the compound in human serum assessed as remaining peptide by RP-HPLC analysis; assay type: ADME, cell-free
[6] = Toxicity in C57BL/6 mouse assessed as death at 25 mg/kg, ip measured during 14 days of study; assay type: organism-based; conditions: in vivo, 336 h, time 14 day
[7] = Toxicity in C57BL/6 mouse assessed as increase in body weight at 25 mg/kg, ip measured during 14 days of study; assay type: organism-based; conditions: in vivo, 336 h, time 14 day
[8] = Toxicity in C57BL/6 mouse assessed as death at 50 mg/kg, ip measured on day 4; assay type: organism-based; conditions: in vivo, 96 h, time 4 day
[9] = Toxicity in C57BL/6 female mouse assessed as apparent inflammatory exudates ([…], neutrophiles, macrophages) in lungs at 25 mg/kg, ip measured during 14 days of study by H and E staining based analysis; assay type: organism-based; conditions: in vivo, 336 h, time 14 day
[10] = Toxicity in C57BL/6 female mouse assessed as juxtaglomerular cells and interstitial fibrous tissues in kidney at 25 mg/kg, ip measured during 14 days of study by H and E staining based analysis; assay type: organism-based; conditions: in vivo, 336 h, time 14 day
[11] = Toxicity in C57BL/6 female mouse assessed as haemorrhagic point and blurred white pulp boundary in liver at 25 mg/kg, ip measured during 14 days of study by H and E staining based analysis; assay type: organism-based; conditions: in vivo, 336 h, time 14 day
[12] = Toxicity in C57BL/6 female mouse assessed as haemorrhagic point and blurred white pulp boundary in spleen at 25 mg/kg, ip measured during 14 days of study by H and E staining based analysis; assay type: organism-based; conditions: in vivo, 336 h, time 14 day
Escherichia coli [13] = assay: In vivo antibacterial activity against Escherichia coli intraperitoneally injected into C57BL/6 mouse peritonitis model assessed as reduction in bacterial load in blood at 2.5 mg/kg, ip measured after 48 hrs relative to control; assay type: functional, organism-based
Escherichia coli [14] = assay: In vivo antibacterial activity against Escherichia coli intraperitoneally injected into C57BL/6 mouse peritonitis model assessed as reduction in bacterial load in liver at 2.5 mg/kg, ip measured after 48 hrs relative to control; assay type: functional, organism-based
Escherichia coli [15] = assay: In vivo antibacterial activity against Escherichia coli intraperitoneally injected into C57BL/6 mouse peritonitis model assessed as reduction in bacterial load in spleen at 2.5 mg/kg, ip measured after 48 hrs relative to control; assay type: functional, organism-based
Escherichia coli [16] = assay: In vivo antibacterial activity against Escherichia coli intraperitoneally injected into C57BL/6 mouse peritonitis model assessed as reduction in bacterial load in lung at 2.5 mg/kg, ip measured after 48 hrs relative to control; assay type: functional, organism-based
Escherichia coli [17] = assay: In vivo antibacterial activity against Escherichia coli intraperitoneally injected into C57BL/6 mouse peritonitis model assessed as reduction in bacterial load in kidney at 2.5 mg/kg, ip measured after 48 hrs relative to control; assay type: functional, organism-based
Mus musculus [18] = assay: In vivo anti-inflammatory efficacy in Escherichia coli intraperitoneally injected into C57BL/6 mouse peritonitis model assessed as reduction in IL-1beta level in blood at 2.5 mg/kg, ip measured after 48 hrs by ELISA; assay type: functional, organism-based
Mus musculus [19] = assay: In vivo anti-inflammatory efficacy in Escherichia coli intraperitoneally injected into C57BL/6 mouse peritonitis model assessed as reduction in IL-6 level in blood at 2.5 mg/kg, ip measured after 48 hrs by ELISA; assay type: functional, organism-based
Mus musculus [20] = assay: In vivo anti-inflammatory efficacy in Escherichia coli intraperitoneally injected into C57BL/6 mouse peritonitis model assessed as reduction in TNF-alpha level in blood at 2.5 mg/kg, ip measured after 48 hrs by ELISA; assay type: functional, organism-based

CC(C)CCCCC(=O)N[C@@H](CCN)C(=O)N[C@H](C(=O)N[C@@H](CCN)C(=O)N[C@H]1CCNC(=O)[C@H]([C@@H](C)O)NC(=O)[C@H](CCN)NC(=O)[C@H](CCN)NC(=O)[C@H](CC(C)C)NC(=O)[C@@H](Cc2ccccc2)NC(=O)[C@H](CCN)NC1=O)[C@@H](C)O.CC[C@H](C)CCCCC(=O)N[C@@H](CCN)C(=O)N[C@H](C(=O)N[C@@H](CCN)C(=O)N[C@H]1CCNC(=O)[C@H]([C@@H](C)O)NC(=O)[C@H](CCN)NC(=O)[C@H](CCN)NC(=O)[C@H](CC(C)C)NC(=O)[C@@H](Cc2ccccc2)NC(=O)[C@H](CCN)NC1=O)[C@@H](C)O (X1-[Dab]T[Dab][Dab][Dab][dF]L[Dab][Dab]T; lactam 4-C)
Activity (Escherichia coli [1]): 100%

Ac-KWKLFKKIEKVGQNIRDGIIKAGPAVAVVGQATQIAK-NH2
MIC (Staphylococcus aureus): > 100 µM
MIC (Klebsiella pneumoniae): 12.5 µM
MIC (Pseudomonas aeruginosa): 100 µM
HC50 at 1 h [2]: 174 µM
half-life [3]: 2.17 h
Retention_time [4]: 21.69 min
Activity (Cell membrane): Active
Stability [5]: > 50%
Activity [6]: Non-toxic
Activity [7]: Toxic
Activity [8]: Toxic
Activity [9]: Non-toxic
Activity [10]: Non-toxic
Activity [11]: Non-toxic
Activity [12]: Non-toxic
Activity (Escherichia coli [1]): 50%
Activity (Escherichia coli [13]): Active
Activity (Escherichia coli [14]): Active
Activity (Escherichia coli [15]): Active
Activity (Escherichia coli [16]): Active
Activity (Escherichia coli [17]): Active
Activity (Mus musculus [18]): Active
Activity (Mus musculus [19]): Active
Activity (Mus musculus [20]): Active
